Values quoted from earlier work, collected in patent US20050250118A1 (priority 2003, published 2005).

Tests used:
AD patients [1] = conditions: galantamine therapy
AD patients [2] = conditions: presence of the ApoE4 polymorphism

| SMILES | most common side effects (AD patients [1]) | response to treatment with ApoE4 allele present (AD patients [2]) |
| --- | --- | --- |
| COc1ccc2c3c1O[C@H]1C[C@@H](O)C=C[C@@]31CCN(C)C2 [galantamine] | nausea, vomiting, diarrhea, dizziness and anorexia | – |
| Nc1c2c(nc3ccccc13)CCCC2 [tacrine] | – | reduced response to treatment |
